“Also recorded” adds a separate entry of the source.
Columns and labels:
CD4+ T cells = assay: CFSE proliferation assay of CD4+ T cells after interaction with Ova/adjuvant-matured bone marrow derived DCs (APC); type: cell-based, mice
Description: FIG. 3B: Cell proliferation tracked by CFSE dilution of CD4+ T cells after interaction with matured Antigen Presenting Cells (APC). With every cell division, the CFSE signal strength is approximately halved. The shown cell numbers indicate the ratio of proliferated live CD4+ T cells.
(§1) FIG. 4: Effect after treatment with IPB 0964-1917—Cell proliferation tracked by CFSE loss of T cells after interaction with matured Antigen Presenting Cells (APC). With every cell division, the CFSE signal strength is reduced. The shown cell numbers indicate the ratio of proliferating T and B cells (7 steps are shown). (A) Numbers of CD4+ T cells are shown at different proliferation steps up to 7 days measuring the loss of CFSE. Naïve cells were treated with one of IPB1901-1912 together with DCs activated with Ova prior to the CFSE assay. (B) Numbers of CD4+ T cells are shown at different proliferation steps up to 7 days measuring the loss of CFSE. Naïve cells were treated with one of IPB2033-2044 together with DCs activated with Ova prior to the CFSE assay. (C) Numbers of CD8+ T cells are shown at different proliferation steps up to 7 days measuring the loss of CFSE. Naïve cells were treated with one of IPB1901-1912 together with DCs activated with Ova prior to the CFSE assay. (D) Numbers of CD8+ T cells are shown at different proliferation steps up to 7 days measuring the loss of CFSE. Naïve cells were treated with one of IPB2033-2044 together with DCs activated with Ova prior to the CFSE assay.
(§2) In order to assess the properties of the inventive compounds in antigen-specific T and B cell stimulation, the compounds were administered to cultured bone marrow cells in a CFSE assay.
(§3) Briefly, femurs and Tibiae of female 4-12 weeks old C57Bl6 (or BALB/c for TCR HA) were removed and purified from the surrounding muscle tissue (Kleenex tissues). Intact Bones were left in 70% ethanol for 2-5 min for disinfection. Both ends were cut with scissors and the bone marrow were flushed with PBS using a syringe with a 0.45 mm diameter needle, clusters were disintegrated by vigorous pipetting.
(§4) In order to obtain activated antigen presenting dendritic cells (DCs), bone marrow cells were cultured with GM-CSF. On Day 0, cells were seeded in a concentration of 2×10^6 cells per 100 mm dish (bacteriological petri dishes) in 10 ml RPMI-10 (100 U Pen/100 μg Strept/2 mM Glutamin/50 μm ß-Mercaptoethanol/10% FCS heat-inactivated and filtered 0.22 μm Filter) containing 200 Units GM-CSF. On Day 3 another 10 ml RPMI-10 containing 200 U GM-CSF were added to the plates. On Day 6 half of the culture supernatants (10 ml) were collected, centrifuged and the cell pellet resuspended in 10 ml fresh RPMI-10/200 U GM-CSF and given back into the original plates.
(§5) Subsequently, the DCs were incubated with Ovalbumin (as antigen) alone or co-administered with known adjuvants, such as α-GalCerMPEG, aßGalCerMPEG or TLR2/6 ligand (BPPcysMPEG), or the novel phytosphingosine derivatives of the present invention. The activation of DCs was controlled by FACS analysis of different CD markers, such as CD40, CD54, CD80, CD86, CD83, MHCI and MHCII.
(§6) The effect of the compounds of the present invention was then ascertained via co-incubation of naïve T or B cells, obtained from mice (OTI or OTII mice) with previous exposure to the Ova antigen, with DCs that had been treated with the compounds of the invention.
(§7) Naïve T cells were derived from LN/spleen from OTI or OTII mice. The MagniSort™ Mouse CD4 naïve or CD8 naïve T cell Enrichment Kit is designed for the magnetic separation of CD4 or CD8 naïve T cells by negative selection from mouse spleens or lymph nodes utilizing a biotinylated antibody cocktail and streptavidin-coated magnetic beads. Undesired cells are bound by antibody (Anti-Mouse CD8 or CD4/CD11b CD19/CD24/CD44/CD45R(B220)/CD49b(Integrin α 2)/Ly-6G (Gr-1)/γδ TCR/TER-119) and then magnetic beads that, when placed in a magnetic field, leave CD4 or CD8 naïve T cells untouched and free in solution. […]

CD8+ T cells = assay: CFSE proliferation assay of CD8+ T cells after interaction with Ova/adjuvant-matured bone marrow derived DCs (APC); type: cell-based, mice; conditions: DCs restimulated with Ovalbumin + 10 μg compound for 24 h; interaction with APC for 5 days; FIG. 3C
Description: FIG. 3C: Cell proliferation tracked by CFSE dilution of CD8+ T cells after interaction with matured Antigen Presenting Cells (APC). With every cell division, the CFSE signal strength is approximately halved. The shown cell numbers indicate the ratio of proliferated live CD8+ T cells
as §1, §2, §3, §4, §5, §6, §7

Ova-specific IgG = Ova-specific IgG titer (ELISA) in sera of mice immunized with Ovalbumin plus adjuvant; type: in vivo; conditions: Ovalbumin 30 μg + adjuvant 15 μg, days 0, 14, 28, sera 14 days after last immunization
Protocol: FIG. 5: Immunization protocol—Administration (intramuscular route) of Ovalbumin with adjuvants. Ovalbumin (30 μg) was co-administered (intramuscular) without or with different adjuvants, such as IPB 2033-2044, c-di-AMP or aßGalCerMPEG (15 μg), on days 0, 14 and 28.
FIG. 7: Systemic humoral immune responses induced in mice. Shown is the IgG titer as a readout of systemic humoral immune responses induced in mice after three immunizations with Ovalbumin co-administered with different adjuvants via intramuscular route. Ova-specific IgG titers were measured via ELISA in sera 14 days after the last immunization.
FIG. 9: Immunization protocol—Administration (intranasal route) of Ovalbumin with adjuvants. Immunization protocol: Mucosal administration (intranasal (i.n.) route) of Ovalbumin (30 μg) co-administered without or with different adjuvants, such as IPB 2033-2044, c-di-AMP or aßGalCerMPEG (15 μg), on days 0, 14 and 28.
FIG. 11: Systemic humoral immune responses induced in mice. Shown is the IgG titer as a readout of systemic humoral immune responses induced in mice after three immunizations with Ovalbumin co-administered with different adjuvants via intranasal route. Ova-specific IgG titers in sera 14 days after the last immunization.
Groups of mice (3-5 animals) were immunized either intranasal (i.n.) or intramuscular (i.m.) on days 0, 14 and 281 with PBS, or with Ovalbumin (30 μg); the latter were administered alone or with different adjuvants—c-di-AMP, aßGalCerMPEG or IPB 2033 to 2044—made up to a maximal volume of 20 μl (i.n.) or 50 μl (i.m.) in PBS.
Blood samples were collected on days 1, 14, 28 and 42 via retro-bulbar bleeding. Spleens of vaccinated mice were aseptically removed. For the subsequent methods, cell suspensions of spleens (n=5) of each immunized groups were prepared and erythrocytes were lysed. These splenocyte pools of each group were cultured in the presence of different concentrations of Ovalbumin; controls received 5 μg/mL concanavalin A. The incorporation of [^3H] thymidine into the DNA of proliferating cells was determined using a scintillation counter (Wallac 1450, Micro-Trilux).
The Ova-specific antibodies were determined in serum samples by ELISA. Endpoint titers were expressed as reciprocal values of the last dilution, which gave an optical density at 405 nm of two times above the values of the negative controls. For calculation purposes, negative samples were assigned an arbitrary titer of the lowest dilution measured.
As described in the protocols above, groups of mice (3-5 animals) were immunized either intranasal (i.n.) or intramuscular (i.m.) on days 0, 14 and 281 with PBS, or with Ovalbumin (30 μg); the latter were administered alone or with different adjuvants—c-di-AMP, aßGalCerMPEG or IPB 2033 to 2044—is shown in FIG. 5-11, intramuscular.

SMILES: CCCCCCCCCCCCCCCCCCCCCCCC(=O)N(CC(=O)NCCC(=O)O)[C@@H](CO[C@H]1OC(CO)[C@H](O)C(O)C1O)[C@H](O)[C@H](O)CCCCCCCCCCCCCC (some centres unmarked) [IPB 0964]
- capacity to induce antigen specific CD4+ T cell proliferation (CD4+ T cells; DCs restimulated with Ovalbumin + 10 μg compound for 24 h, interaction with APC for 5 days, FIG. 3B): high capacity
- effect to induce antigen specific CD8+ T cell proliferation (CD8+ T cells): strong effect; also recorded: beneficial effect

SMILES: CCCCCCCCCCCCCCCCCCCCCCCCCC(=O)N(CC(=O)NCCCCCCCCCCCCCCCCCC)[C@@H](CO[C@H]1OC(CO)[C@H](O)C(O)C1O)[C@H](O)[C@H](O)CCCCCCCCCCCCCC (some centres unmarked) [IPB 2033]
- stimulation of antigen specific IgG production compared to control aßGalCerMPEG+ova (Ova-specific IgG; intramuscular (i.m.), FIG. 7): improved stimulation
- stimulation of antigen specific IgG production compared to control aßGalCerMPEG+ova (Ova-specific IgG; intranasal (i.n.), FIG. 11): improved stimulation

SMILES: CCCCCCCCCCCCCCCCCCCCCCCCCC(=O)N(CC(=O)NCCOCCOCCOCCOC)[C@@H](CO[C@H]1OC(CO)[C@H](O)[C@H](O)C1O)[C@H](O)[C@H](O)CCCCCCCCCCCCCC (some centres unmarked) [IPB 2034]
- stimulation of antigen specific IgG production compared to control aßGalCerMPEG+ova (Ova-specific IgG; intramuscular (i.m.), FIG. 7): improved stimulation
- stimulation of antigen specific IgG production compared to control aßGalCerMPEG+ova (Ova-specific IgG; intranasal (i.n.), FIG. 11): at least equivalent

SMILES: CCCCCCCCCCCCCCCCCCCCCCCCCC(=O)N(CC(=O)NCCCCCCN)[C@@H](CO[C@H]1OC(CO)[C@H](O)C(O)C1O)[C@H](O)[C@H](O)CCCCCCCCCCCCCC (some centres unmarked) [IPB 2035]
- stimulation of antigen specific IgG production compared to control aßGalCerMPEG+ova (Ova-specific IgG; intramuscular (i.m.), FIG. 7): improved stimulation
- stimulation of antigen specific IgG production compared to control aßGalCerMPEG+ova (Ova-specific IgG; intranasal (i.n.), FIG. 11): at least equivalent

SMILES: CCCCCCCCCCCCCCCCCCCCCCCCCC(=O)N(CC(=O)NCCCc1ccccc1)[C@@H](CO[C@H]1OC(CO)[C@H](O)C(O)C1O)[C@H](O)[C@H](O)CCCCCCCCCCCCCC (some centres unmarked) [IPB 2037]
- stimulation of antigen specific IgG production compared to control aßGalCerMPEG+ova (Ova-specific IgG; intramuscular (i.m.), FIG. 7): improved stimulation
- stimulation of antigen specific IgG production compared to control aßGalCerMPEG+ova (Ova-specific IgG; intranasal (i.n.), FIG. 11): at least equivalent

SMILES: CCCCCCCCCCCCCCCCCCCCCCCCCC(=O)N(CC(=O)NCC(OC)OC)[C@@H](CO[C@H]1OC(CO)[C@H](O)C(O)C1O)[C@H](O)[C@H](O)CCCCCCCCCCCCCC (some centres unmarked) [IPB 2038]
- stimulating effect of CD4+ T cells versus controls with only antigen Ova (CD4+ T cells; CFSE loss up to 7 days, DCs activated with Ova + 10 μg compound, FIG. 4A/4B): stimulating effect of CD4+ T cells beyond controls
- stimulation of antigen specific IgG production compared to control aßGalCerMPEG+ova (Ova-specific IgG; intramuscular (i.m.), FIG. 7): at least equivalent
- stimulation of antigen specific IgG production compared to control aßGalCerMPEG+ova (Ova-specific IgG; intranasal (i.n.), FIG. 11): improved stimulation

SMILES: CCCCCCCCCCCCCCCCCCCCCCCC(=O)N(CC(=O)NCCCCCCCCCCCCCCCCCC)[C@@H](CO[C@H]1OC(CO)[C@H](O)C(O)C1O)[C@H](O)[C@H](O)CCCCCCCCCCCCCC (some centres unmarked) [IPB 2040]
- stimulation of antigen specific IgG production compared to control aßGalCerMPEG+ova (Ova-specific IgG; intramuscular (i.m.), FIG. 7): improved stimulation
- stimulation of antigen specific IgG production compared to control aßGalCerMPEG+ova (Ova-specific IgG; intranasal (i.n.), FIG. 11): improved stimulation

SMILES: CCCCCCCCCCCCCCCCCCCCCCCCCC(=O)N(CC(=O)NCCN1C(=O)c2cccc3c(N(C)C)ccc(c23)C1=O)[C@@H](CO[C@H]1OC(CO)[C@H](O)C(O)C1O)[C@H](O)[C@H](O)CCCCCCCCCCCCCC (some centres unmarked) [IPB 2041]
- stimulation of antigen specific IgG production compared to control aßGalCerMPEG+ova (Ova-specific IgG; intramuscular (i.m.), FIG. 7): at least equivalent
- stimulation of antigen specific IgG production compared to control aßGalCerMPEG+ova (Ova-specific IgG; intranasal (i.n.), FIG. 11): improved stimulation

SMILES: CCCCCCCCCCCCCCCCCCCCCCCCCC(=O)N(CC(=O)NCc1ccccc1)[C@@H](CO[C@H]1OC(CO)[C@H](O)C(O)C1O)[C@H](O)[C@H](O)CCCCCCCCCCCCCC (some centres unmarked) [IPB 2042]
- stimulation of antigen specific IgG production compared to control aßGalCerMPEG+ova (Ova-specific IgG; intramuscular (i.m.), FIG. 7): improved stimulation
- stimulation of antigen specific IgG production compared to control aßGalCerMPEG+ova (Ova-specific IgG; intranasal (i.n.), FIG. 11): improved stimulation

SMILES: CCCCCCCCCCCCCCCCCCCCCCCCCC(=O)N(CC(=O)NCCC(=O)OC(C)(C)C)[C@@H](CO[C@H]1OC(CO)[C@H](O)C(O)C1O)[C@H](O)[C@H](O)CCCCCCCCCCCCCC (some centres unmarked) [IPB 2043]
- stimulation of antigen specific IgG production compared to control aßGalCerMPEG+ova (Ova-specific IgG; intramuscular (i.m.), FIG. 7): improved stimulation
- stimulation of antigen specific IgG production compared to control aßGalCerMPEG+ova (Ova-specific IgG; intranasal (i.n.), FIG. 11): improved stimulation

SMILES: CCCCCCCCCCCCCCCCCCCCCCCCCC(=O)N(CC(=O)NCCOCCOCCOCCOCCOC)[C@@H](CO[C@H]1OC(CO)[C@H](O)[C@H](O)C1O)[C@H](O)[C@H](O)CCCCCCCCCCCCCC (some centres unmarked) [IPB 2044]
- stimulation of antigen specific IgG production compared to control aßGalCerMPEG+ova (Ova-specific IgG; intramuscular (i.m.), FIG. 7): at least equivalent
- stimulation of antigen specific IgG production compared to control aßGalCerMPEG+ova (Ova-specific IgG; intranasal (i.n.), FIG. 11): at least equivalent
